Each structure is given as a SMILES string.

This assay concerns the target T1, recombinant human FAAH (rhFAAH) (Homo sapiens, UniProt O00519).
T1 construct: purchased Cayman Chemical (Ann Arbor, MI, USA)
T1 sequence (O00519 1-579): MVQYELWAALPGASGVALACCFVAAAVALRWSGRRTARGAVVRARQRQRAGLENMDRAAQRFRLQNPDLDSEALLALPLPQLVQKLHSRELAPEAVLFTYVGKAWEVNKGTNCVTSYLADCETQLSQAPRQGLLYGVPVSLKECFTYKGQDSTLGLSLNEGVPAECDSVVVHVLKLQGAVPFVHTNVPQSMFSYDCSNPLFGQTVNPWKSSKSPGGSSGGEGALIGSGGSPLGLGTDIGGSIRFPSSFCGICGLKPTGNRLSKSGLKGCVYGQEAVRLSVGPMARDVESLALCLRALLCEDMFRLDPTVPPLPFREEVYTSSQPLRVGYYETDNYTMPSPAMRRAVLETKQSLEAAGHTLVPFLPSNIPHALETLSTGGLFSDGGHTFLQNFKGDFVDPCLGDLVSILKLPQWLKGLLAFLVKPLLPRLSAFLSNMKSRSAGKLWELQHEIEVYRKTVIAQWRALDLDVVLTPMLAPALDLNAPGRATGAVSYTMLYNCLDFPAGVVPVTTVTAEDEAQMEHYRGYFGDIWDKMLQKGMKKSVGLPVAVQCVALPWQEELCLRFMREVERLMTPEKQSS
Put plainly: FAAH substrate evaluation (acid metabolite formation). Type of assay: biochemical. Particulars: observed rate constant for acid metabolite formation; 0.5 ng/μL rhFAAH, 1 μM test compound, room temperature, 0-60 minutes. Here is the method: Purified recombinant human FAAH (rhFAAH) was purchased from Cayman Chemical (Ann Arbor, MI, USA). The total volume for each incubation was 400 μL containing a final 0.5 ng/μL rhFAAH, 1 μM test compound, 1.25% ethanol or 1 μM PF-3845 (FAAH inhibitor), and 0.1% bovine serum albumin in Tris-EDTA buffer at pH 8.0). The positive control was LL-341001. The incubation was conducted at the room temperature. At 0, 5, 15, 30 and 60 minutes, an aliquot of 30 μL reaction mixtures was removed and mixed with 300 μL acetonitrile containing 5 ng/mL terfenadine and 10 ng/mL tolbutamide as internal standards to quench the reaction. The resulting mixture was centrifuged at 4000 rpm, 4° C. for 15 minutes, and 100 μL supernatant was ready for LC-MS/MS analysis to measure the formation of acid metabolite.
Acquity Ultra Performance LC system from Waters was used for sample analysis. The chromatography was performed on a reverse phase Kinetex 2.6 μm C18 column, 2.1×30 mm, 100 Å. The mobile phase A comprised of 0.1% formic acid in water and mobile phase B comprised of 0.1% formic acid in acetonitrile with a 2-min run time at the flow rate of 0.8 mL/min for the acid metabolite from positive control or a 1.5 min run time at the flow rate of 0.9 mL/min for the acid metabolite of test compounds. The mass spectrometer (API-5500 and API Q Trap 4000 Applied Biosystems/MDS SCIEX Instruments, Framingham, MA, USA) was operated under ESI positive or negative ion MRM mode.
The formation of acid metabolite was monitored and quantified using one calibration point of 1 μM. The observed rate constant (ke) for the acid metabolite formation was calculated by plotting the metabolite concentration versus time of incubation with the slope being ke and is shown in Table 1.
In the case of `CC(C)c1cc(Cc2c(Cl)cc(OCC(=O)NC(C)(C)C)cc2Cl)ccc1O` [Compound 119, N-(tert-butyl)-2-(3,5-dichloro-4-(4-hydroxy-3-isopropylbenzyl)phenoxy)acetamide], the ke entry is “C (ke is 0)”.

As for `CCNC(=O)COc1cc(Cl)c(Cc2ccc(O)c(C(C)C)c2F)c(Cl)c1` [Compound 33], the ke entry is on record as “A (ke is more than or equal to 0.1)”.

With `CC(C)c1cc(Cc2c(Cl)cc(OCC(=O)N3CCCC3)cc2Cl)ccc1O` [Compound 117, 2-(3,5-dichloro-4-(4-hydroxy-3-isopropylbenzyl)phenoxy)-1-(pyrrolidin-1-yl)ethan-1-one], the ke entry is “B (ke is less than 0.1 and more than 0)”.

On to `CC(C)NC(=O)COc1cc(Cl)c(Cc2ccc(O)c(C(C)C)c2)c(Cl)c1` [Compound 126, 2-(3,5-dichloro-4-(4-hydroxy-3-isopropylbenzyl)phenoxy)-N-isopropylacetamide], for which the ke result is listed as “A (ke is more than or equal to 0.1)”.

Consider `CC(C)c1cc(Cc2c(Cl)cc(OCC(=O)N(C)CC(F)(F)F)cc2Cl)ccc1O` [Compound 131, 2-(3,5-dichloro-4-(4-hydroxy-3-isopropylbenzyl)phenoxy)-N-methyl-N-(2,2,2-trifluoroethyl)acetamide], for which the ke entry is “B (ke is less than 0.1 and more than 0)”.

Take `CCN(C)C(=O)COc1cc(Cl)c(Cc2ccc(O)c(C(C)C)c2)c(Cl)c1` [Compound 130, 2-(3,5-dichloro-4-(4-hydroxy-3-isopropylbenzyl)phenoxy)-N-ethyl-N-methylacetamide]: the ke result is “B (ke is less than 0.1 and more than 0)”.

Turning to `CC(C)c1cc(Cc2c(Cl)cc(OCC(=O)Nc3cccc(O)c3)cc2Cl)ccc1O` [Compound 21], the ke entry is reported as “A (ke is more than or equal to 0.1)”.

`CCN(C)C(=O)COc1cc(Cl)c(Cc2ccc(O)c(C(C)C)c2F)c(Cl)c1` [Compound 34]: the ke result is “C (ke is 0)”.

For `CC#CCNC(=O)COc1cc(Cl)c(Cc2ccc(O)c(C(C)C)c2)c(Cl)c1` [Compound 106, N-(but-2-yn-1-yl)-2-(3,5-dichloro-4-(4-hydroxy-3-isopropylbenzyl)phenoxy)acetamide], the ke result is “B (ke is less than 0.1 and more than 0)”.

For `CC(C)c1c(O)ccc(Cc2c(Cl)cc(OCC(=O)N(C)C)cc2Cl)c1F` [Compound 32], the ke entry was “A (ke is more than or equal to 0.1)”.

Consider `CC(C)c1cc(Cc2c(Cl)cc(OCC(=O)NO)cc2Cl)ccc1O` [Compound 26], for which the ke result was “A (ke is more than or equal to 0.1)”.

As to `CC(C)c1cc(Cc2c(Cl)cc(OCC(=O)Nc3ccncc3)cc2Cl)ccc1O` [Compound 115, 2-(3,5-dichloro-4-(4-hydroxy-3-isopropylbenzyl)phenoxy)-N-(pyridin-4-yl)acetamide], the ke entry is reported as “A (ke is more than or equal to 0.1)”.

Take `CCCN(C)C(=O)COc1cc(Cl)c(Cc2ccc(O)c(C(C)C)c2)c(Cl)c1` [Compound 129, 2-(3,5-dichloro-4-(4-hydroxy-3-isopropylbenzyl)phenoxy)-N-methyl-N-propylacetamide]: the ke entry is “B (ke is less than 0.1 and more than 0)”.

As for `CC#CCN(C)C(=O)COc1cc(Cl)c(Cc2ccc(O)c(C(C)C)c2)c(Cl)c1` [Compound 107, N-(but-2-yn-1-yl)-2-(3,5-dichloro-4-(4-hydroxy-3-isopropylbenzyl)phenoxy)-N-methylacetamide], the ke entry was “B (ke is less than 0.1 and more than 0)”.

Turning to `CC(C)c1cc(Cc2c(Cl)cc(OCC(=O)NC3COC3)cc2Cl)ccc1O` [Compound 18], the ke entry was “A (ke is more than or equal to 0.1)”.

On to `CC(C)c1cc(Cc2c(Cl)cc(OCC(=O)NCCN)cc2Cl)ccc1O` [Compound 12], for which the ke entry was “B (ke is less than 0.1 and more than 0)”.

As for `CC(C)c1cc(Cc2c(Cl)cc(OCC(=O)NC3CC3)cc2Cl)ccc1O` [Compound 17], the ke result is listed as “A (ke is more than or equal to 0.1)”.

Consider `CC(C)c1cc(Cc2c(Cl)cc(OCC(=O)NCC(F)F)cc2Cl)ccc1O` [Compound 15], for which the ke entry is “A (ke is more than or equal to 0.1)”.

`C=CCNC(=O)COc1cc(Cl)c(Cc2ccc(O)c(C(C)C)c2)c(Cl)c1` [Compound 4]: the ke entry is “A (ke is more than or equal to 0.1)”.

On to `CC(C)CNC(=O)COc1cc(Cl)c(Cc2ccc(O)c(C(C)C)c2)c(Cl)c1` [Compound 121, 2-(3,5-dichloro-4-(4-hydroxy-3-isopropylbenzyl)phenoxy)-N-isobutylacetamide], for which the ke result is on record as “C (ke is 0)”.

On to `Cc1noc(NC(=O)COc2cc(Cl)c(Cc3ccc(O)c(C(C)C)c3)c(Cl)c2)c1C` [Compound 103, 2-(3,5-dichloro-4-(4-hydroxy-3-isopropylbenzyl)phenoxy)-N-(3,4-dimethylisoxazol-5-yl)acetamide], for which the ke result is “A (ke is more than or equal to 0.1)”.

In the case of `CC(C)c1cc(Cc2c(Cl)cc(OCC(=O)NC3CCC3)cc2Cl)ccc1O` [Compound 127, N-cyclobutyl-2-(3,5-dichloro-4-(4-hydroxy-3-isopropylbenzyl)phenoxy)acetamide], the ke entry is “B (ke is less than 0.1 and more than 0)”.

Regarding `CC(C)c1cc(Cc2c(Cl)cc(OCC(=O)NCCc3ccc(O)c(O)c3)cc2Cl)ccc1O` [Compound 24], the ke result is “B (ke is less than 0.1 and more than 0)”.

On to `CCCNC(=O)COc1cc(Cl)c(Cc2ccc(O)c(C(C)C)c2)c(Cl)c1` [Compound 3], for which the ke entry was “A (ke is more than or equal to 0.1)”.

Regarding `CNC(=O)COc1cc(Cl)c(Cc2ccc(O)c(C(C)C)c2F)c(Cl)c1` [Compound 31], the ke result is recorded as “A (ke is more than or equal to 0.1)”.

Regarding `C#CCNC(=O)COc1cc(Cl)c(Cc2ccc(O)c(C(C)C)c2)c(Cl)c1` [Compound 5], the ke result is “A (ke is more than or equal to 0.1)”.

In the case of `CNN(C)C(=O)COc1cc(Cl)c(Cc2ccc(O)c(C(C)C)c2)c(Cl)c1` [Compound 124, 2-(3,5-dichloro-4-(4-hydroxy-3-isopropylbenzyl)phenoxy)-N,N′-dimethylacetohydrazide], the ke result is “B (ke is less than 0.1 and more than 0)”.

Regarding `CC(C)c1cc(Cc2c(Cl)cc(OCC(=O)NC[C@@H](C)O)cc2Cl)ccc1O` [Compound 7], the ke result was “B (ke is less than 0.1 and more than 0)”.

`CC(C)c1cc(Cc2c(Cl)cc(OCC(=O)NCCS(=O)O)cc2Cl)ccc1O` [Compound 13]: the ke entry is “B (ke is less than 0.1 and more than 0)”.

For the compound `CC(C)c1cc(Cc2c(Cl)cc(OCC(=O)NCCCF)cc2Cl)ccc1O` [Compound 112, 2-(3,5-dichloro-4-(4-hydroxy-3-isopropylbenzyl)phenoxy)-N-(3-fluoropropyl)acetamide], the ke result is on record as “A (ke is more than or equal to 0.1)”.

In the case of `CC(C)c1cc(Cc2c(Cl)cc(OCC(=O)N[C@@H]3C[C@@H]3F)cc2Cl)ccc1O` [Compound 111, 2-(3,5-dichloro-4-(4-hydroxy-3-isopropylbenzyl)phenoxy)-N-((1R,2S)-2-fluorocyclopropyl)acetamide], the ke result is “A (ke is more than or equal to 0.1)”.

As to `CC(C)c1cc(Cc2c(Cl)cc(OCC(=O)Nc3ccnnc3)cc2Cl)ccc1O` [Compound 116, 2-(3,5-dichloro-4-(4-hydroxy-3-isopropylbenzyl)phenoxy)-N-(pyridazin-4-yl)acetamide], the ke result is “A (ke is more than or equal to 0.1)”.

Consider `CC(C)c1cc(Cc2c(Cl)cc(OCC(=O)NCc3ccccc3)cc2Cl)ccc1O` [Compound 22], for which the ke result is on record as “A (ke is more than or equal to 0.1)”.

In the case of `C=CCN(C)C(=O)COc1cc(Cl)c(Cc2ccc(O)c(C(C)C)c2)c(Cl)c1` [Compound 128, N-allyl-2-(3,5-dichloro-4-(4-hydroxy-3-isopropylbenzyl)phenoxy)-N-methylacetamide], the ke result is “B (ke is less than 0.1 and more than 0)”.

Take `CC(C)c1cc(Cc2c(Cl)cc(OCC(=O)N(C)C)cc2Cl)ccc1O` [Compound 19]: the ke entry was “B (ke is less than 0.1 and more than 0)”.

Take `CC(C)c1cc(Cc2c(Cl)cc(OCC(=O)N[C@H](C)CO)cc2Cl)ccc1O` [Compound 9]: the ke result is “A (ke is more than or equal to 0.1)”.

For the origin of these results see patent US12637413B2, “Fatty acid amide hydrolase (FAAH) cleavable prodrugs of thyromimetics and combination with peripherally restricted FAAH inhibitors” (Autobahn Therapeutics, Inc., priority 2021, dated 2026).
